Laboratory results from patent US12691076B2, “Methods and compositions related to extracellular vesicles” (priority 2020, dated 2026).
Like-named read-outs stand apart in the source and are kept apart here.

Experiment: Plasma and tissue concentrations of efavirenz after tail vein injection
Type: in vivo, CD-1 mice
Conditions: mice, 5 mg/kg tail vein; for concentration at […]: 0.25 h
Method: The efavirenz-loaded apical AVT-EVs were subsequently injected via tail vein into CD-1 mice at a dose of 5 mg/kg and compared to a control injection of 5 mg/kg of conventional efavirenz (dissolved with DMSO). Plasma and tissue concentrations were determined by LC-MS/MS.

[1] = CD-1, mouse, liver, intravenous, LLOQ 35 ng/g, read-out: Efavirenz concentration, Liver
[2] = CD-1, mouse, lung, intravenous, LLOQ 35 ng/g, read-out: Efavirenz concentration, Lungs
[3] = CD-1, mouse, plasma, intravenous, read-out: Efavirenz concentration, Plasma

Question: With `O=C1Nc2ccc(Cl)cc2[C@@](C#CC2CC2)(C(F)(F)F)O1` [Efavirenz in DMSO, efavirenz] as the compound, how does the concentration at 0.083 h [1] read?
Answer: The concentration at 0.083 h was 7590 ng/g.

Question: And the concentration at […] [1]?
Answer: Its concentration at […] is 5420 ng/g.

Question: What about the concentration at 0.5 h [1] of the same compound?
Answer: The concentration at 0.5 h was 5230 ng/g.

Question: And the concentration at 1 h [1]?
Answer: Its concentration at 1 h is 176 ng/g.

Question: What about the concentration at 2 h [1] of the same compound?
Answer: Its concentration at 2 h is 135 ng/g.

Question: What about the concentration at 3 h (CD-1, mouse, liver, intravenous, 3 h, LLOQ 35 ng/g, read-out: Efavirenz concentration, Liver) of the same compound?
Answer: The concentration at 3 h was 136 ng/g.

Question: And the concentration at 4 h (CD-1, mouse, liver, intravenous, 4 h, LLOQ 35 ng/g, read-out: Efavirenz concentration, Liver)?
Answer: Its concentration at 4 h is 137 ng/g.

Question: What about the concentration at 6 h (CD-1, mouse, liver, intravenous, 6 h, LLOQ 35 ng/g, read-out: Efavirenz concentration, Liver) of the same compound?
Answer: The concentration at 6 h was 115 ng/g.

Question: What about the concentration at 0.083 h [2] of the same compound?
Answer: The concentration at 0.083 h was 2140 ng/g.

Question: And the concentration at […] [2]?
Answer: The concentration at […] was 802 ng/g.

Question: And the concentration at 0.5 h [2]?
Answer: The concentration at 0.5 h was 830 ng/g.

Question: And the concentration at 1 h [2]?
Answer: The concentration at 1 h was 273 ng/g.

Question: And the concentration at 0.083 h [3]?
Answer: The concentration at 0.083 h was 4100 ng/mL.

Question: And the concentration at […] [3]?
Answer: Its concentration at […] is 2820 ng/mL.

Question: And the concentration at 0.5 h [3]?
Answer: The concentration at 0.5 h was 1620 ng/mL.

Question: What about the concentration at 1 h [3] of the same compound?
Answer: The concentration at 1 h was 1560 ng/mL.

Question: And the concentration at 2 h [3]?
Answer: The concentration at 2 h was 724 ng/mL.

Question: What about the concentration at 3 h (CD-1, mouse, plasma, intravenous, 3 h, read-out: Efavirenz concentration, Plasma) of the same compound?
Answer: Its concentration at 3 h is 396 ng/mL.

Question: And the concentration at 4 h (CD-1, mouse, plasma, intravenous, 4 h, read-out: Efavirenz concentration, Plasma)?
Answer: The concentration at 4 h was 103 ng/mL.

Question: And the concentration at 6 h (CD-1, mouse, plasma, intravenous, 6 h, read-out: Efavirenz concentration, Plasma)?
Answer: Its concentration at 6 h is 64.4 ng/mL.

Question: What about the concentration at 8 h (CD-1, mouse, plasma, intravenous, 8 h) of the same compound?
Answer: The concentration at 8 h was 33.1 ng/mL.

Question: And the AUC(0-t) (CD-1, mouse, plasma, intravenous, read-out: area under the plasma-time concentration curve (AUC0-8h) of efavirenz)?
Answer: The AUC(0-t) was 4520 ng·h/mL.

Question: And the “AUC0-8h for efavirenz in the lungs” value?
Answer: The value was 0.95 µg·h/g.

Question: And the “lung:liver tissue AUC0-8h ratio” value?
Answer: The value was 0.19.

Question: What about the “overall exposure of the liver relative to the lungs” value of the same compound?
Answer: Its value is “approximately 5 times”.

Question: What about the “Efavirenz concentration, Lungs” value (3 h, LLOQ 35 ng/g) of the same compound?
Answer: The value was “<LLOQ”.

Question: What about the “Efavirenz concentration, Lungs” value (4 h, LLOQ 35 ng/g) of the same compound?
Answer: Its value is “<LLOQ”.

Question: And the “Efavirenz concentration, Lungs” value (6 h, LLOQ 35 ng/g)?
Answer: The value was “<LLOQ”.

Question: What about the “Efavirenz concentration, Liver” value (8 h, LLOQ 35 ng/g) of the same compound?
Answer: Its value is “<LLOQ”.

Question: What about the “Efavirenz concentration, Lungs” value (8 h, LLOQ 35 ng/g) of the same compound?
Answer: Its value is “<LLOQ”.
